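Cultured in 96-well plates, cells were exposed to test compound for 48 hours across five concentrations. GI50 = concentration required for 50% inhibition of growth.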 Activity calls are given as the source filed them. Cut-off read from the data, not from the text of the source: active = GI50 up to about 1.1 µM and inactive = higher.
Columns and labels:
Assay in all cases: NCI anticancer screen, dose series, 48 h
BT-549 = test system: BT-549
RPMI-8226 = test system: RPMI-8226
OVCAR-4 = test system: OVCAR-4
OVCAR-8 = test system: OVCAR-8
A549 = test system: A549
NCI-H226 = test system: NCI-H226
NCI-H460 = test system: NCI-H460
UACC-257 = test system: UACC-257
MDA-MB-435 = test system: MDA-MB-435
EKVX = test system: EKVX
HCT-15 = test system: HCT-15
UACC-62 = test system: UACC-62
OVCAR-3 = test system: OVCAR-3
SK-MEL-2 = test system: SK-MEL-2
HOP-62 = test system: HOP-62
SK-OV-3 = test system: SK-OV-3
T47D = test system: T47D
LOX IMVI = test system: LOX IMVI
MDA-N = test system: MDA-N
HCC 2998 = test system: HCC 2998

Row | SMILES | GI50 (BT-549) | GI50 (RPMI-8226) | GI50 (OVCAR-4) | GI50 (OVCAR-8) | GI50 (A549) | GI50 (NCI-H226) | GI50 (NCI-H460) | GI50 (UACC-257) | GI50 (MDA-MB-435) | GI50 (EKVX) | GI50 (HCT-15) | GI50 (UACC-62) | GI50 (OVCAR-3) | GI50 (SK-MEL-2) | GI50 (HOP-62) | GI50 (SK-OV-3) | GI50 (T47D) | GI50 (LOX IMVI) | GI50 (MDA-N) | GI50 (HCC 2998)
1 | COc1ccc(/C=N/CCC/N=C/c2ccc(OC)cc2O)c(O)c1 | 48.9 µM (inactive) | 38.3 µM (inactive) | 36.8 µM (inactive) | 35.6 µM (inactive) | > 100 µM (inactive) | 16.7 µM (inactive) | > 100 µM (inactive) | 36.6 µM (inactive) | 46.1 µM (inactive) | 29.3 µM (inactive) | 37.5 µM | 27 µM (inactive) | 16 µM (inactive) | 34.8 µM (inactive) | > 100 µM (inactive) |  |  |  |  | 
2 | CN1N=C(c2ccncc2)OC1c1ccccc1F (centres undefined) |  | > 100 µM (inactive) | > 100 µM (inactive) | > 100 µM (inactive) | > 100 µM (inactive) | 73.1 µM (inactive) | > 100 µM (inactive) |  | > 100 µM (inactive) | > 100 µM (inactive) | > 100 µM | > 100 µM (inactive) | > 100 µM (inactive) | > 100 µM (inactive) | > 100 µM (inactive) | > 100 µM (inactive) | 51.8 µM (inactive) | > 100 µM (inactive) | > 100 µM (inactive) | > 100 µM (inactive)
3 | O=[N+]([O-])c1ccc(Cl)c2c([N+](=O)[O-])cccc12 |  | 5.52 µM (inactive) | 6.22 µM (inactive) | 3.5 µM (inactive) | > 10 µM (inactive) |  |  |  | 3.1 µM (inactive) | > 10 µM (inactive) | 2.77 µM | 5.46 µM (inactive) | 3.49 µM (inactive) | 8.34 µM (inactive) | > 10 µM (inactive) | 2.28 µM (inactive) | 4.22 µM (inactive) | 3.71 µM (inactive) | 2.18 µM (inactive) | > 10 µM (inactive)
4 | CC1(C)S[C@@H]2[C@H](N3C(=O)c4ccccc4C3=O)CN2[C@H]1NC(=O)N[C@@H]1N2C[C@@H](N3C(=O)c4ccccc4C3=O)[C@H]2SC1(C)C |  | > 100 µM (inactive) | > 100 µM (inactive) | 58.3 µM (inactive) | 73.3 µM (inactive) | > 100 µM (inactive) | > 100 µM (inactive) |  | > 100 µM (inactive) |  | > 100 µM | > 100 µM (inactive) | > 100 µM (inactive) | > 100 µM (inactive) | 48.8 µM (inactive) | 80.9 µM (inactive) | > 100 µM (inactive) | > 100 µM (inactive) |  | > 100 µM (inactive)
5 | CC(=O)[O-].Cc1ncc(CO)c(/C=N/NC(N)=S)c1[O-].[Zn+2] |  | > 100 µM (inactive) | > 100 µM (inactive) | > 100 µM (inactive) | > 100 µM (inactive) | > 100 µM (inactive) | > 100 µM (inactive) | > 100 µM (inactive) |  | > 100 µM (inactive) | > 100 µM | > 100 µM (inactive) | > 100 µM (inactive) | > 100 µM (inactive) | > 100 µM (inactive) | > 100 µM (inactive) |  | > 100 µM (inactive) |  | > 100 µM (inactive)
6 | Clc1ccccc1/C=C\C1(c2ccccc2)OCCO1 |  | 4.2 µM (inactive) | 18 µM (inactive) | 17.7 µM (inactive) | > 100 µM (inactive) | 27.1 µM (inactive) | 16.8 µM (inactive) | 16.7 µM (inactive) | 15.6 µM (inactive) | 19.1 µM (inactive) | 12.6 µM | 15.7 µM (inactive) | 17.7 µM (inactive) |  | 22.3 µM (inactive) | 29.8 µM (inactive) | 26.9 µM (inactive) | 5.36 µM (inactive) | 15.6 µM (inactive) | 17.5 µM (inactive)
7 | CC1(CCCCO)C=CC(S(=O)(=O)c2ccccc2)CC1 (centres undefined) | 14.4 µM (inactive) | 1.56 µM (inactive) | 8.67 µM (inactive) | 10.5 µM (inactive) | 3.64 µM (inactive) | 2.43 µM (inactive) | 3.15 µM (inactive) | 4.41 µM (inactive) | 9.42 µM (inactive) | 3.1 µM (inactive) | 3.69 µM | 6.15 µM (inactive) | 6.17 µM (inactive) | 11.1 µM (inactive) | 2.64 µM (inactive) | 10.8 µM (inactive) |  | 1.78 µM (inactive) | 3.42 µM (inactive) | 5.9 µM (inactive)
8 | CC(=O)c1cc(C)n2c1CS[C@@H]2c1ccccc1 | 37.2 µM (inactive) | 7.85 µM (inactive) | 59.7 µM (inactive) | 70.8 µM (inactive) | 53 µM (inactive) | 41 µM (inactive) |  | > 100 µM (inactive) | 27.3 µM (inactive) | 34.9 µM (inactive) | 31.3 µM |  | 39.6 µM (inactive) | 98.9 µM (inactive) | 83.9 µM (inactive) | > 100 µM (inactive) | 35.6 µM (inactive) | 26.3 µM (inactive) |  | 
9 | CC(C)C1OC(N)=C(C#N)C1(C#N)C#N (centres undefined) |  | 29 µM (inactive) |  | 41.9 µM (inactive) | > 100 µM (inactive) | > 100 µM (inactive) |  | 17.1 µM (inactive) | 29.6 µM (inactive) | 62.2 µM (inactive) | > 10 µM | 32.5 µM (inactive) |  | > 100 µM (inactive) | 44.4 µM (inactive) | > 100 µM (inactive) | 67.3 µM (inactive) | 28.1 µM (inactive) | 38.2 µM (inactive) | 24.5 µM (inactive)
10 | COC(=O)C1c2cc3c(c(O)c2CCC1(C)O)C(=O)c1c(O)cc2c(c1C3=O)OC1OC2(C)C(O)C(N(C)C)C1O (centres undefined) |  |  | 0.158 µM (active) | 0.101 µM (active) | 0.186 µM (active) | 0.0112 µM (active) | 0.452 µM (active) | 0.108 µM (active) | 1.01 µM (active) | 0.146 µM (active) | 0.394 µM | 0.421 µM (active) | 0.0991 µM (active) | 4.76 µM (inactive) | 0.254 µM (active) | 1.91 µM (inactive) | 0.274 µM (active) | 0.226 µM (active) |  | 
11 | O=C1CC(c2ccc(Cl)cc2)C2(C(=O)NC(=S)NC2=O)C(c2ccc(Cl)cc2)C1 (centres undefined) |  | 20.6 µM (inactive) | 17.5 µM (inactive) |  | 26.9 µM (inactive) | 21.7 µM (inactive) | 14.9 µM (inactive) | 18.5 µM (inactive) | 19.5 µM (inactive) | 29 µM (inactive) | 23.7 µM | 16.1 µM (inactive) | 17.4 µM (inactive) | 17.3 µM (inactive) | 26.8 µM (inactive) | 14.9 µM (inactive) | 23.7 µM (inactive) | 28.3 µM (inactive) | 17.2 µM (inactive) | 25.8 µM (inactive)
12 | CC1C2=C(O)CC(C)(C)CC2=NC2=C1C(=O)CC(C)(C)C2 (centres undefined) | > 100 µM (inactive) | > 100 µM (inactive) | > 100 µM (inactive) | > 100 µM (inactive) | > 100 µM (inactive) | > 100 µM (inactive) | > 100 µM (inactive) |  |  | > 100 µM (inactive) | > 100 µM | > 100 µM (inactive) | > 100 µM (inactive) |  |  | > 100 µM (inactive) |  | > 100 µM (inactive) |  | > 100 µM (inactive)
13 | Cc1cc(-c2ccc(Cl)cc2)c(C#N)c(=S)n1C1OC(CO)C(O)C(O)C1O (centres undefined) |  |  | > 100 µM (inactive) | > 100 µM (inactive) | > 100 µM (inactive) | > 100 µM (inactive) | > 100 µM (inactive) | > 100 µM (inactive) | > 100 µM (inactive) | > 100 µM (inactive) | > 100 µM | > 100 µM (inactive) | > 100 µM (inactive) | > 100 µM (inactive) | > 100 µM (inactive) | > 100 µM (inactive) | 99.8 µM (inactive) | > 100 µM (inactive) | > 100 µM (inactive) | > 100 µM (inactive)
14 | COc1cccc([C@@H]2C/C(=N\NC(=O)C(=O)N[C@@H](C)c3ccccc3)c3cc4c(cc3N2)OCO4)c1 |  | 30.5 µM (inactive) | 74 µM (inactive) |  | 43.9 µM (inactive) | 10.5 µM (inactive) |  | 15.8 µM (inactive) | 2.28 µM (inactive) | 65.9 µM (inactive) | 27.4 µM | 17.1 µM (inactive) | 30.1 µM (inactive) | 85.9 µM (inactive) | 69.5 µM (inactive) | > 100 µM (inactive) | > 100 µM (inactive) | 80 µM (inactive) | 7.19 µM (inactive) | 50.9 µM (inactive)
15 | CCOC(=O)CSc1[nH]c2nc(C)nc(Cl)c2c1C#N |  | > 10 µM (inactive) | > 10 µM (inactive) | > 10 µM (inactive) | > 10 µM (inactive) |  |  | > 10 µM (inactive) | > 10 µM (inactive) | > 10 µM (inactive) | > 10 µM | > 10 µM (inactive) |  |  | > 10 µM (inactive) | > 10 µM (inactive) | > 10 µM (inactive) | > 10 µM (inactive) | > 10 µM (inactive) | > 10 µM (inactive)
16 | CN(C)CCNC(=O)c1cccc2c(NC(CCCNC(=N)N)C(=O)O)c3ccccc3nc12 (centres undefined) |  | 6.59 µM (inactive) | 5.09 µM (inactive) | 4.13 µM (inactive) | 4.8 µM (inactive) | 3.88 µM (inactive) |  |  | 10.1 µM (inactive) | 3.48 µM (inactive) | 6.37 µM | 15.8 µM (inactive) | 18.1 µM (inactive) | 13.8 µM (inactive) | 9.73 µM (inactive) | 12.6 µM (inactive) |  | 3.85 µM (inactive) | 14 µM (inactive) | 
17 | Cc1ccc(S(=O)(=O)N/N=C\c2c3ccccc3[n+]([O-])c3ccccc23)cc1 |  | 0.415 µM (active) | 10.8 µM (inactive) | 4.03 µM (inactive) | 5.12 µM (inactive) | 4.54 µM (inactive) | 2.44 µM (inactive) | 9.95 µM (inactive) |  | 20 µM (inactive) | 0.989 µM | 5.55 µM (inactive) | 16.1 µM (inactive) | 4.41 µM (inactive) | 5.38 µM (inactive) | 14.7 µM (inactive) |  | 1.08 µM (active) |  | 8.57 µM (inactive)

From ChEMBL document CHEMBL1201862, “PubChem BioAssay data set” (2004)
